Test results taken from ChEMBL document CHEMBL6109099, “Design, synthesis and biological evaluation of novel hydroxamic acid-derived histone deacetylase inhibitors bearing a 2-oxoindoline scaffold as potential antitumor agents” (Bioorg Med Chem, 2025).
pIC50: −log10 of the molar value. Where a name gives a salt, the structure may show the parent alone. Calls of active or inactive are those of the source. No cut-off for these calls is given here.

Tests used:
[1] = molecular target: Histone deacetylase; assay: Inhibition of HDAC in human HeLa cells nuclear extract; format: subcellular, Nucleus
[2] = test system: SW-620; assay: Cytotoxicity against human SW620 cells assessed as reduction in cell viability by SRB assay; format: functional, cell-based
[3] = test system: HCT-116; assay: Cytotoxicity against human HCT-116 cells assessed as reduction in cell viability by SRB assay; format: functional, cell-based
[4] = Cytotoxicity against human MRC5 cells assessed as reduction in cell viability by SRB assay
[5] = test system: SW-620; assay: Potency index, ratio of SAHA IC50 to test compound IC50 for cytotoxicity against human SW620 cells; format: functional
[6] = test system: SW-620; assay: Cell cycle arrest in human SW620 cells assessed as accumulation of cells at G0/G1-phase at 5 uM measured after 24 hrs by propidium iodide staining based flow cytometry (reference value: 52.39 to 55.88%); format: functional
[7] = test system: SW-620; assay: Cell cycle arrest in human SW620 cells assessed as accumulation of cells at S-phase at 5 uM measured after 24 hrs by propidium iodide staining based flow cytometry (reference value: 16.38 to 16.91%); format: functional
[8] = test system: SW-620; assay: Cell cycle arrest in human SW620 cells assessed as accumulation of cells at G2/M-phase at 5 uM measured after 24 hrs by propidium iodide staining based flow cytometry (reference value: 27.55 to 31.23%); format: functional
[9] = test system: SW-620; assay: Induction of apoptosis in human SW620 cells assessed as early apoptotic cells at 5 uM measured after 24 hrs by Annexin V-APC/propidium iodide staining based flow cytometry (reference value: 7.13 to 9.13%); format: functional
[10] = test system: SW-620; assay: Induction of apoptosis in human SW620 cells assessed as late apoptotic cells at 5 uM measured after 24 hrs by Annexin V-APC/propidium iodide staining based flow cytometry (reference value: 3.47 to 4.55%); format: functional
[11] = test system: SW-620; assay: Induction of apoptosis in human SW620 cells assessed as necrotic cells at 5 uM measured after 24 hrs by Annexin V-APC/propidium iodide staining based flow cytometry (reference value: 0.2 to 0.42%); format: functional
[12] = test system: SW-620; assay: Induction of morphological changes in human SW620 cells assessed as cell shrinkage at 5 uM measured after 24 hrs; format: functional, cell-based
[13] = test system: SW-620; assay: Induction of morphological changes in human SW620 cells assessed as altered membrane fluidity at 5 uM measured after 24 hrs; format: functional, cell-based
[14] = test system: SW-620; assay: Induction of morphological changes in human SW620 cells assessed as altered membrane permeability at 5 uM measured after 24 hrs; format: functional, cell-based
[15] = test system: SW-620; assay: Induction of morphological changes in human SW620 cells assessed as reduction in cell size at 5 uM measured after 24 hrs; format: functional, cell-based
[16] = test system: SW-620; assay: Induction of morphological changes in human SW620 cells assessed as increase in granularity at 5 uM measured after 24 hrs; format: functional, cell-based
[17] = test system: SW-620; assay: Induction of morphological changes in human SW620 cells assessed as water extrusion at 5 uM measured after 24 hrs; format: functional, cell-based
[18] = test system: SW-620; assay: Induction of morphological changes in human SW620 cells assessed as cytoplasmic condensation at 5 uM measured after 24 hrs; format: functional, cell-based
[19] = test system: SW-620; assay: Induction of morphological changes in human SW620 cells assessed as tighter organelle packing at 5 uM measured after 24 hrs; format: functional, cell-based
[20] = test system: SW-620; assay: Induction of morphological changes in human SW620 cells assessed as cell rounding at 5 uM measured after 24 hrs; format: functional, cell-based
[21] = test system: SW-620; assay: Induction of morphological changes in human SW620 cells assessed as cell clumping at 5 uM measured after 24 hrs; format: functional, cell-based

IC50 [1] [µM] | Compound | pIC50 [2] | pIC50 [3] | pIC50 [4] | also measured
0.025 | COc1ccc2c(c1)CC(=O)N2CCCCCCC(=O)NO | 5.22 | 5.19 | 4.61 | 
0.491 | O=C(NO)c1ccc(CN2C(=O)Cc3cc(Cl)ccc32)cc1 | 5.20 | 5.46 | < 4.00 | 
0.737 | O=C(/C=C/c1ccc(CN2C(=O)Cc3cc(Cl)ccc32)cc1)NO | 5.15 | 5.44 | 4.18 | 
0.015 | O=C(CCCCCCN1C(=O)Cc2ccccc21)NO | 5.74 | 5.77 | 4.75 | Ratio IC50 [5]: ~2.5; Activity [6]: 32.88%; Activity [7]: 15.26%; Activity [8]: 47.54%; Activity [9]: 23.4%; Activity [10]: 28.9%; Activity [11]: 1.85%; Activity [12]: Active; Activity [13]: Active; Activity [14]: Active; Activity [15]: Active; Activity [16]: Active; Activity [17]: Active; Activity [18]: Active; Activity [19]: Active; Activity [20]: Active; Activity [21]: Active
0.477 | O=C(NO)c1ccc(CN2C(=O)Cc3ccccc32)cc1 | 5.09 | 5.14 | < 4.00 | 
2.739 | O=C(NO)c1ccc(CN2C(=O)Cc3cc(Br)ccc32)cc1 | 5.26 | 5.56 | 4.67 | 
5.012 | O=C(/C=C/c1ccc(CN2C(=O)Cc3cc(F)ccc32)cc1)NO | 4.85 | 5.13 | < 4.00 | 

More lines, now with the values behind:

Compound | IC50 [1] [µM] | pIC50 [2] | pIC50 [3] | pIC50 [4] | also measured
O=C(NO)c1ccc(CN2C(=O)Cc3cc(F)ccc32)cc1 | 0.477 | 4.97 | 5.12 | < 4.00 | 
O=C(CCCCCCN1C(=O)Cc2cc(F)ccc21)NO | 0.047 | 5.24 | 5.40 | 4.24 | 
O=C(/C=C/c1ccc(CN2C(=O)Cc3cc(Br)ccc32)cc1)NO | 0.698 | 5.28 | 5.50 | 4.31 | 
O=C(CCCCCCN1C(=O)Cc2cc(Br)ccc21)NO | < 0.001 | 4.91 | 5.00 | 4.52 | 
COc1ccc2c(c1)CC(=O)N2Cc1ccc(/C=C/C(=O)NO)cc1 | 1.043 | 4.99 | 5.50 | < 4.00 | 
COc1cccc2c1C(=O)c1c(O)c3c(c(O)c1C2=O)C[C@@](O)(C(=O)CO)C[C@@H]3O[C@H]1C[C@H](N)[C@H](O)[C@H](C)O1 [DOXORUBICIN HYDROCHLORIDE] |  | 6.23 | 6.72 | 5.41 | 
COc1ccc2c(c1)CC(=O)N2Cc1ccc(C(=O)NO)cc1 | 2.735 | 5.05 | 5.44 | 4.38 | 
O=C(CCCCCCC(=O)Nc1ccccc1)NO [VORINOSTAT] |  |  |  |  | Activity [6]: 41.58%; Activity [7]: 15.16%; Activity [8]: 37.58%; Activity [9]: 26.3%; Activity [10]: 24.3%; Activity [11]: 1.53%; Activity [12]: Active; Activity [13]: Active; Activity [14]: Active; Activity [15]: Active; Activity [16]: Active; Activity [17]: Active; Activity [18]: Active; Activity [19]: Active; Activity [20]: Active; Activity [21]: Active
O=C(/C=C/c1ccc(CN2C(=O)Cc3ccccc32)cc1)NO | 2.316 | 5.13 | 5.24 | < 4.00 | 
O=C(CCCCCCN1C(=O)Cc2cc(Cl)ccc21)NO | 0.007 | 5.33 | 5.25 | 4.64 | 
